pIC50: −log10 of the molar value. Where a SMILES comes first, the peptide text is derived from it. The star is where a group is joined. CHN2 = [N-]=[N+]=C*
Columns and labels:
Dipeptidyl peptidase 1 [1] = molecular target: T1, Dipeptidyl peptidase 1 (Homo sapiens, UniProt P53634); test: Inhibition of human Cathepsin C using Gly-Phe-paranitroanilide as substrate incubated for 12 mins
Dipeptidyl peptidase 1 [2] = molecular target: T1, Dipeptidyl peptidase 1; test: Inhibition of human Cathepsin C using Gly- L -Phe-p-nitroanilide.HCl as substrate
Dipeptidyl peptidase 1 [3] = molecular target: T1, Dipeptidyl peptidase 1; test: Inhibition of human Cathepsin C using Ala-4-[ 125 I]Phe-DMK as substrate preincubated for 30 mins followed by substrate addition measured after 6 to 24 hrs
Dipeptidyl peptidase 1 [4] = molecular target: T1, Dipeptidyl peptidase 1; test: Inhibition of human Cathepsin C using Z-Arg-Arg-AM as substrate at 3 microM relative to control
Mus musculus = test: Inhibition of Cathepsin C in mouse spleen measured at 5 mg/kg ip, relative to control; format: organism-based
Dipeptidyl peptidase 1 [5] = molecular target: T1, Dipeptidyl peptidase 1; test: Inhibition of Cathepsin C (unknown origin)
Dipeptidyl peptidase 1 [6] = molecular target: T1, Dipeptidyl peptidase 1; test: Inhibition of human Cathepsin C using Gly-Phe-AMC as substrate assessed as kobs/[I]

T1 sequence (P53634 25-134 limits assumed): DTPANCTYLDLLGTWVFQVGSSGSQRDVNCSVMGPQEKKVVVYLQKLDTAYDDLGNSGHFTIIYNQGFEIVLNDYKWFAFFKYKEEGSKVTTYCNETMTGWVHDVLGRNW
T1 sequence (P53634 231-394 limits assumed): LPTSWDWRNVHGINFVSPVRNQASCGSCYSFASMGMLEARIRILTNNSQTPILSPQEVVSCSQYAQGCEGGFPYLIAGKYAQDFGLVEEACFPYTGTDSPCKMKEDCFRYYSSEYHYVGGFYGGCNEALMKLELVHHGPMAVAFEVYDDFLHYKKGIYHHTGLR
T1 sequence (P53634 395-463 limits assumed): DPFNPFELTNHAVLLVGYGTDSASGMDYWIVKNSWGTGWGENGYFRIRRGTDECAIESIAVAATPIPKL

Q: How did the pIC50 (Dipeptidyl peptidase 1 [1]) turn out when `CC[C@H](N)C(=O)N[C@]1(C#N)C[C@@H]1c1ccc(-c2ccc(S(=O)(=O)N3CCN(C)CC3)cc2)cc1` was run?
A: The pIC50 was 7.82.

Q: With `CC(C)CC(NC(=O)CN)P(=O)(O)CCC(=O)O` (stereo unspecified) as the compound, how does the pIC50 (Dipeptidyl peptidase 1 [2]) read?
A: Its pIC50 is 4.41.

Q: `N#[N+][CH-]C(=O)[C@H](Cc1ccccc1)NC(=O)CN` was tested. Which pIC50 (Dipeptidyl peptidase 1 [3]) did it give?
A: The pIC50 was 7.30.

Q: Which results are given for `[N-]=[N+]=CC(=O)[C@H](Cc1ccccc1)NC(=O)CN` (H-Gly-Phe-CHN2)?
A: inhibition (Dipeptidyl peptidase 1 [4]): > 90%; inhibition (Mus musculus): > 90%

Q: `CC[C@@H](/C=C/C(=O)N1CCc2ccccc21)NC(=O)C1(N)CCOCC1` was tested. Which pIC50 (Dipeptidyl peptidase 1 [5]) did it give?
A: The pIC50 was 9.00.

Q: How did the pIC50 (Dipeptidyl peptidase 1 [4]) turn out when `C[C@@H](O)[C@H](N)C(=O)N[C@@H](/C=C/S(C)(=O)=O)CCC(=O)O` was run?
A: Its pIC50 is 5.31.

Q: And the Ratio (Dipeptidyl peptidase 1 [6])?
A: The Ratio was 2900 M⁻¹ s⁻¹.

Q: How did the ID50 (Dipeptidyl peptidase 1 [4]) turn out when `C[C@H](N)C(=O)N[C@H](/C=C/S(=O)(=O)c1ccccc1)CCc1ccccc1` was run?
A: Its ID50 is 100 nM.

Q: And the Ratio (Dipeptidyl peptidase 1 [6])?
A: Its Ratio is 2 10^6/M/s.

Q: `C=CC(=O)Nc1cc2c(Nc3ccc(F)c(Cl)c3)ncnc2cc1OCCCN1CCOCC1` [CANERTINIB] was tested. Which pIC50 (Dipeptidyl peptidase 1 [5]) did it give?
A: The pIC50 was 6.92.

From ChEMBL document CHEMBL5233276, “Cathepsin C inhibitors as anti-inflammatory drug discovery: Challenges and opportunities” (Eur J Med Chem, 2021)
